Experimental data from PMC5829162, “Rational Design, Synthesis and Biological Evaluation of Pyrimidine-4,6-diamine derivatives as Type-II inhibitors of FLT3 Selective Against c-KIT” (Scientific Reports, 2018).

Tests used:
[1] = molecular target: T1, RETV804L (Homo sapiens, UniProt P07949, V804L); test: Biochemical kinase selectivity assay, RET V804L
T1 sequence (P07949 658-1114 V804L limits assumed): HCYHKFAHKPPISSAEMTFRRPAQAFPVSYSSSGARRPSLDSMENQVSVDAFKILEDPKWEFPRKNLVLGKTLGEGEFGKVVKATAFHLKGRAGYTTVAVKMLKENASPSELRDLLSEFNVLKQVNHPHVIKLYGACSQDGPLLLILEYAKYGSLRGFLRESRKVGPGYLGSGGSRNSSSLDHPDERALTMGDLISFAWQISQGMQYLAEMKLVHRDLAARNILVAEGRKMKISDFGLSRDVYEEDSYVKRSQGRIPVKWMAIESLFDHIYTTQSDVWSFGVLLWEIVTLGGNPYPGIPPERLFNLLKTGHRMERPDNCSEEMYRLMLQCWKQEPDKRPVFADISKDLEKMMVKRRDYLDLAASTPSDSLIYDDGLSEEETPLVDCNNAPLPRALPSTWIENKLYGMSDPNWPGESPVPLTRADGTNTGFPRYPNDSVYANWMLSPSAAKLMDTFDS

[2] = test system: FLT3-driven cell lines; test: Cell-based studies, FLT3-driven cell lines overall; conditions: range over the FLT3 cell lines
Text: Stable BaF3 populations expressing activated FLT3 were generated by retroviral spinfection with the appropriate mutated plasmid followed by selection and growth factor withdrawal as previously described. The BaF3 cell line was originally obtained from the laboratory of Charles Sawyers and has not been authenticated. MV411 and Molm14 cells were obtained from the laboratory of Scott Kogan and authenticated by Promega STR analysis in June 2013. All cell lines were mycoplasma-free. Cells were incubated with compounds for 48 hours and proliferation was assessed using CellTiter-Glo (Promega; Madison, WI) according to the manufacturer’s recommendation on a SpectraMax M3 microplate reader using SpectraMax Software (Molecular Devices; Sunnyvale, CA). All cell viability data shown is reflective of experiments performed a minimum of three times. […]
S13. […]
2013. […] Cells were incubated with compounds for 48 hours and proliferation was assessed using CellTiter -Glo (Promega; Madison, WI) according to the manufacturer’s recommendation on a SpectraMax M3 microplate reader using SpectraMax Software (Molecular Devices; Sunnyvale, CA). […]

SMILES: Cn1nc(C(C)(C)C)cc1NC(=O)Cc1ccc(Nc2cc(Nc3ccc(S(C)(=O)=O)cc3)ncn2)cc1 [13a, 2-(4-(6-(4-(Methylsulfonyl)phenylamino)pyrimidin-4-ylamino)phenyl)-N-(3-tert-butyl-1-methyl-1H-pyrazol-5-yl)acetamide]
- inhibition at 20 µM [1]: 62.3%
- GI50 [2]: 9 to 2000 nM

SMILES: CC(C)(C)c1cc(NC(=O)Cc2ccc(Nc3cc(Nc4ccc(S(C)(=O)=O)cc4)ncn3)cc2)no1 [13k, 2-(4-(6-(4-(Methylsulfonyl)phenylamino)pyrimidin-4-ylamino)phenyl)-N-(5-tert-butylisoxazol-3-yl)acetamide]
- inhibition at 20 µM [1]: 40.8%
